Test results taken from ChEMBL document CHEMBL4382196, “Unraveling the Prenylation-Cancer Paradox in Multiple Myeloma with Novel Geranylgeranyl Pyrophosphate Synthase (GGPPS) Inhibitors” (J Med Chem, 2018).
Activity calls are given as the source filed them. No cut-off for these calls is given here.

Assays:
[1] = system: RPMI-8226; assay: cells; settings: Homo sapiens, RPMI-8226, 72 h
[2] = system: Hydroxyapatite; assay: Binding affinity to bone mineral hydroxyapatite at 50 uM by 1H NMR assay
[3] = system: RPMI-8226; assay: Induction of apoptosis in human RPMI8226 cells assessed as late apoptotic cells at 1 uM after 72 hrs in presence GGOH by APC Annexin V/eFluor-780-viability double staining-based FACS analysis (reference value: 5.80%); type: functional
[4] = Hepatotoxicity in Vk*MYC transgenic mouse model assessed as effect of serum AST levels at 3 mg/kg/day, ip administered over 14 days and measured at 4 hrs post last dose relative to control; type: toxicity, organism-based; settings: in vivo
[5] = system: RPMI-8226; assay: Induction of apoptosis in human RPMI8226 cells assessed as viable cells at 1 uM after 72 hrs in presence GGOH by APC Annexin V/eFluor-780-viability double staining-based FACS analysis (reference value: 87.3%); type: functional; settings: RPMI-8226, 72 h, read-out: Activity
[6] = Hepatotoxicity in Vk*MYC transgenic mouse model assessed as effect of serum ALT levels at 3 mg/kg/day, ip administered over 14 days and measured at 4 hrs post last dose relative to control; type: toxicity, organism-based; settings: in vivo
[7] = Half life in CD1 mouse liver microsomes by LC-MS/MS analysis; type: ADME, Microsome
[8] = system: RPMI-8226; assay: Induction of apoptosis in human RPMI8226 cells assessed as early apoptotic cells at 1 uM after 72 hrs by APC Annexin V/eFluor-780-viability double staining-based FACS analysis (reference value: 3.31%); type: functional
[9] = system: MIA PaCa-2; assay: Antiproliferative activity against human MIAPaCa2 cells at 10 uM after 72 hrs by celltiter-glo luminescent assay; type: functional, cell-based
[10] = Half life in human liver microsomes by LC-MS/MS analysis; type: ADME, Microsome
[11] = system: RPMI-8226; assay: Induction of apoptosis in human RPMI8226 cells assessed as necrotic cells at 1 uM after 72 hrs by APC Annexin V/eFluor-780-viability double staining-based FACS analysis (reference value: 3.60%); type: functional
[12] = system: RPMI-8226; assay: Induction of apoptosis in human RPMI8226 cells assessed as necrotic cells at 1 uM after 72 hrs in presence GGOH by APC Annexin V/eFluor-780-viability double staining-based FACS analysis (reference value: 3.60%); type: functional
[13] = Half life in Sprague-Dawley rat liver microsomes by LC-MS/MS analysis; type: ADME, Microsome
[14] = target: T1, Farnesyl pyrophosphate synthase (Homo sapiens, UniProt P14324); assay: Inhibition of human FPPS using [14C]-IPP and […] after 10 mins by scintillation counting
T1 sequence (P14324 whole entry): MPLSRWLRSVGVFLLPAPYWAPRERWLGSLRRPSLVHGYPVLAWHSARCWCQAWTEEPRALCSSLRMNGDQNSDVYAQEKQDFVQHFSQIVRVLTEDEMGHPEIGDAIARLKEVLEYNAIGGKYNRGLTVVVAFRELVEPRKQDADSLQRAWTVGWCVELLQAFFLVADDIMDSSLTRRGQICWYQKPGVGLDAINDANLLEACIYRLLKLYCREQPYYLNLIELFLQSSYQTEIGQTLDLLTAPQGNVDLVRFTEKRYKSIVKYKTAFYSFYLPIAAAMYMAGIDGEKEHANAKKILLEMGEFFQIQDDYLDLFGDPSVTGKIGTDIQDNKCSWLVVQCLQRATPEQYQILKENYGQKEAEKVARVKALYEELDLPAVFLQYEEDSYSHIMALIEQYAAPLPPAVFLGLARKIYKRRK

[15] = system: RPMI-8226; assay: Induction of apoptosis in human RPMI8226 cells assessed as viable cells at 1 uM after 72 hrs by APC Annexin V/eFluor-780-viability double staining-based FACS analysis (reference value: 87.3%); type: functional; settings: RPMI-8226, 72 h, read-out: Activity
[16] = system: RPMI-8226; assay: Induction of apoptosis in human RPMI8226 cells assessed as late apoptotic cells at 1 uM after 72 hrs by APC Annexin V/eFluor-780-viability double staining-based FACS analysis (reference value: 5.80%); type: functional
[17] = Toxicity in Vk*MYC transgenic mouse model assessed as weight loss at 3 mg/kg/day, ip administered over 14 days and measured at 4 hrs post last dose (reference value: 10 to 16%); type: organism-based; settings: in vivo
[18] = system: NCI/ADR-RES; assay: Antiproliferative activity against human NCI-ADR-RES cells after 72 hrs by celltiter-glo luminescent assay; type: functional, cell-based
[19] = system: RPMI-8226; assay: Induction of apoptosis in human RPMI8226 cells assessed as early apoptotic cells at 1 uM after 72 hrs in presence GGOH by APC Annexin V/eFluor-780-viability double staining-based FACS analysis (reference value: 3.31%); type: functional
[20] = target: T2, Geranylgeranyl pyrophosphate synthase (Homo sapiens, UniProt O95749)
T2 sequence (O95749 whole entry): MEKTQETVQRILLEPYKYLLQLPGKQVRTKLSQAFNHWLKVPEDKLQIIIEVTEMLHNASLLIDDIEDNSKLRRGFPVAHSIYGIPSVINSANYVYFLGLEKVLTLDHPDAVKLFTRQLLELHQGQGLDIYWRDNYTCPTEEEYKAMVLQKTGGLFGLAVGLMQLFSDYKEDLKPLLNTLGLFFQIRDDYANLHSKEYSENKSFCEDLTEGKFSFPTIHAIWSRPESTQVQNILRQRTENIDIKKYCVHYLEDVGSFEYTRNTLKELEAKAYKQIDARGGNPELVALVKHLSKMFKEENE

[21] = system: A549; assay: Antiproliferative activity against human A549 cells at 10 uM after 72 hrs by celltiter-glo luminescent assay; type: functional, cell-based
[22] = system: HCT-116; assay: Antiproliferative activity against human HCT116 cells at 10 uM after 72 hrs by celltiter-glo luminescent assay; type: functional, cell-based
[23] = system: HT-1080; assay: Antiproliferative activity against human HT1080 cells at 10 uM after 72 hrs by celltiter-glo luminescent assay; type: functional, cell-based
[24] = system: T98G; assay: Antiproliferative activity against human T98G cells at 10 uM after 72 hrs by celltiter-glo luminescent assay; type: functional, cell-based
[25] = system: HT-29; assay: Antiproliferative activity against human HT-29 cells at 10 uM after 72 hrs by celltiter-glo luminescent assay; type: functional, cell-based
[26] = system: RPMI-8226; assay: Induction of apoptosis in human RPMI8226 cells assessed as necrotic cells at 10 uM after 72 hrs by APC Annexin V/eFluor-780-viability double staining-based FACS analysis (reference value: 3.60%); type: functional
[27] = system: RPMI-8226; assay: Induction of apoptosis in human RPMI8226 cells assessed as late apoptotic cells at 10 uM after 72 hrs by APC Annexin V/eFluor-780-viability double staining-based FACS analysis (reference value: 5.80%); type: functional
[28] = system: RPMI-8226; assay: Induction of apoptosis in human RPMI8226 cells assessed as early apoptotic cells at 10 uM after 72 hrs by APC Annexin V/eFluor-780-viability double staining-based FACS analysis (reference value: 3.31%); type: functional
[29] = system: RPMI-8226; assay: Induction of apoptosis in human RPMI8226 cells assessed as viable cells at 10 uM after 72 hrs by APC Annexin V/eFluor-780-viability double staining-based FACS analysis (reference value: 87.3%); type: functional; settings: RPMI-8226, 72 h, read-out: Activity
[30] = target: Geranylgeranyl pyrophosphate synthase (Homo sapiens, UniProt O95749, Y246D)
Geranylgeranyl pyrophosphate synthase (Homo sapiens, UniProt O95749, Y246D), sequence (O95749 whole entry Y246D): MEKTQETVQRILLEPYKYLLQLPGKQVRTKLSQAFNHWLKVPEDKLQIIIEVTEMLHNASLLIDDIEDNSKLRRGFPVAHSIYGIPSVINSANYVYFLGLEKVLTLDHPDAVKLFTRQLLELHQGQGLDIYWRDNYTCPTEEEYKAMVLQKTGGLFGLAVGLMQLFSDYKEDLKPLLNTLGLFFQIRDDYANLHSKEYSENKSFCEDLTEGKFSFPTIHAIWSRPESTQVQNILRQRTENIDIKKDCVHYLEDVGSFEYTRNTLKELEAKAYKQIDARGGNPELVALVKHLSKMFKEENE

[31] = system: RPMI-8226; assay: Induction of apoptosis in human RPMI8226 cells after 72 hrs by APC Annexin V/eFluor-780-viability double staining-based FACS analysis; type: functional, cell-based

O=P(O)(O)C(O)(Cc1ccccn1)P(=O)(O)O
EC50 [1]: 11000 nM | Activity [2]: Active

COc1ccc(NC(=O)c2cccc(-c3nc(NC(P(=O)(O)O)P(=O)(O)O)c4ccsc4n3)c2)cc1F
Activity [3]: 6.18% | Activity [4]: Toxic | viability at 1 µM [5]: 85.4% | Activity [6]: Toxic | t1/2 [7]: 2.13 h | Activity [8]: 4.42% | Activity [9]: Active | t1/2 [10]: 2.57 h | Activity [11]: 40.2% | Activity [12]: 5.33% | Activity [2]: Active | t1/2 [13]: 3.12 h | IC50 [14]: 1400 nM | viability at 1 µM [15]: 12.3% | Activity [16]: 43% | Activity [17]: 15 to 28% | Activity [18]: Active | Activity [19]: 3.06%

O=P(O)(O)C(Nc1ncnc2sc(-c3ccc(C(F)(F)F)cc3)cc12)P(=O)(O)O
EC50 [1]: > 100000 nM | IC50 [20]: 1500 nM

COc1ccc(NC(=O)c2cccc(-c3nc(NC(P(=O)(O)O)P(=O)(O)O)c4ccsc4n3)c2)cc1
Activity [21]: Active | EC50 [1]: 230 nM | Activity [22]: Active | Activity [23]: Active | Activity [24]: Active | Activity [9]: Active | Activity [25]: Active | IC50 [14]: 1300 nM | IC50 [20]: 75 nM | Activity [18]: Active

CC(C)=CCC/C(C)=C/CC/C(C)=C/CC/C(C)=C/CO [GERANYLGERANIOL]
Activity [26]: 2.91% | Activity [27]: 4.96% | Activity [28]: 4.71% | viability at 10 µM [29]: 87.4%

O.O=P(O)(O)C(O)(Cn1ccnc1)P(=O)(O)O [ZOLEDRONIC ACID]
Activity [8]: 2.55% | Activity [11]: 5.04% | Activity [2]: Active | viability at 1 µM [15]: 85.9% | Activity [16]: 6.53%

O=C(Nc1ccccc1)c1cccc(-c2nc(NC(P(=O)(O)O)P(=O)(O)O)c3ccsc3n2)c1
EC50 [1]: 460 nM | IC50 [30]: 50 nM | Activity [2]: Active | IC50 [20]: 49 nM

Cc1ccc(C(=O)Nc2cccc(-c3nc(NC(P(=O)(O)O)P(=O)(O)O)c4ccsc4n3)c2)cc1
EC50 [1]: 720 nM | Activity [31]: Dose-dependent effect | IC50 [14]: 2600 nM
